Test results: ChEMBL document CHEMBL6103588, “Promising thiazolidinedione-thiazole based multi-target and neuroprotective hybrids for Alzheimer's disease: Design, synthesis, in-vitro, in-vivo and in-silico studies” (Eur J Med Chem, 2025)
Activity calls are given as the source filed them. No cut-off for these calls is given here.

Experiments:
[1] = biological target: T1, Amine oxidase [flavin-containing] B (Homo sapiens, UniProt P27338); assay: Inhibition of human MAO-B using tyramine/benzylamine as substrate measured after 30 mins by fluorometric assay
T1 sequence (P27338 whole entry): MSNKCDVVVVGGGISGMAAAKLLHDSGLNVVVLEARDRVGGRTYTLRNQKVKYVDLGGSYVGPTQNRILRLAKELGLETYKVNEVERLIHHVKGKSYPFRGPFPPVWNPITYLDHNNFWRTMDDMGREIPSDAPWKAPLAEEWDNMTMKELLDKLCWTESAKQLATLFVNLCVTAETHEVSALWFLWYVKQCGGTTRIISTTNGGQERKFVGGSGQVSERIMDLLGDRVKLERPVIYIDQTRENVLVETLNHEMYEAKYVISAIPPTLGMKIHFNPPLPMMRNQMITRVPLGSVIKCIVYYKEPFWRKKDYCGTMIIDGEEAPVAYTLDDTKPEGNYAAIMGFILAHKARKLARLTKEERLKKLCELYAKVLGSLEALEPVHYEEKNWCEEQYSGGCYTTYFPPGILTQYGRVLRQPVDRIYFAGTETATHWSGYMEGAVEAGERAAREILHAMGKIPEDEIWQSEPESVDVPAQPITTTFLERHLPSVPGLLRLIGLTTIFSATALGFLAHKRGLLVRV

[2] = Acute toxicity in male Swiss albino mouse assessed as survival time at 50 mg/kg BW, po administered as single dose via gavage by up-and-down method; assay type: organism-based; conditions: in vivo
[3] = in vitro; conditions: PAMPA, pH 7.4
Description: Permeability of compound in PBS at pH 7.4 incubated for 20 hrs by PAMPA-BBB assay

[4] = Acute toxicity in male Swiss albino mouse assessed as signs of pain at 1500 mg/kg BW, po administered as single dose via gavage measured after 48 hrs by up-and-down method; assay type: organism-based; conditions: in vivo
[5] = biological target: Beta-secretase 1 (Homo sapiens, UniProt P56817); assay: Inhibition of BACE-1 (unknown origin) 667-676- (2, 4-dinitrophenyl) Lys-Arg-Arg amide trifluoroacetate as substrate preincubated for 15 mins followed by substrate addition and measured after 2 hrs by fluorescence spectrometric analysis; conditions: read-out: IC50
Sequence of Beta-secretase 1 (P56817 whole entry): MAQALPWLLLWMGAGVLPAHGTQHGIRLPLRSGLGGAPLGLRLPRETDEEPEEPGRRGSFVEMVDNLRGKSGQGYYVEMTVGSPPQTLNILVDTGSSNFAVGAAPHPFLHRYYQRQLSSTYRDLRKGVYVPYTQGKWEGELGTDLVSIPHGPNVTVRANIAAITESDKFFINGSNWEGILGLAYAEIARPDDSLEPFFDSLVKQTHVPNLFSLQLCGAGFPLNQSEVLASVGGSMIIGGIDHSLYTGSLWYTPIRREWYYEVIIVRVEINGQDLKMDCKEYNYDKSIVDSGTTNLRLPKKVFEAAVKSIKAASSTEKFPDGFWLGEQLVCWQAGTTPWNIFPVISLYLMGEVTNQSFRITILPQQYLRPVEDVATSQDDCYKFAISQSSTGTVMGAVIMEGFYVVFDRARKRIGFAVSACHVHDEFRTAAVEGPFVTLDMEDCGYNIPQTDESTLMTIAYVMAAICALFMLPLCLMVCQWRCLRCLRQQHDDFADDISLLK

[6] = Acute toxicity in male Swiss albino mouse assessed as survival time at 1500 mg/kg BW, po administered as single dose via gavage by up-and-down method; assay type: organism-based; conditions: in vivo
[7] = Acute toxicity in male Swiss albino mouse assessed as survival time at 1200 mg/kg BW, po administered as single dose via gavage by up-and-down method; assay type: organism-based; conditions: in vivo
[8] = Lipophilicity, logP of compound; assay type: physicochemical; conditions: octanol/water
[9] = tested on: Mus musculus; assay: Antioxidant activity against scopolamine-induced Albino mouse assessed as increase in GSH-Px level in brain at 5 mg/kg measured after 24 hrs; assay type: functional
[10] = Acute toxicity in male Swiss albino mouse assessed as survival time at 650 mg/kg BW, po administered as single dose via gavage by up-and-down method; assay type: organism-based; conditions: in vivo
[11] = Acute toxicity in male Swiss albino mouse assessed as ataxia at 450 mg/kg BW, po administered as single dose via gavage measured after 1 hrs by up-and-down method; assay type: organism-based; conditions: in vivo
[12] = Acute toxicity in male Swiss albino mouse assessed as mortality rate at 450 to 50 mg/kg BW, po administered as single dose via gavage measured after 48 hrs by up-and-down method relative to control; assay type: organism-based; conditions: in vivo, at 50 to 450 mg/kg, dose 450-50 mg/kg
[13] = biological target: Acetylcholinesterase (Electrophorus electricus, UniProt O42275); assay: Inhibition of Electric eel AChE using acetylthiocholine iodide as substrate pre-incubated for 10 mins followed by substrate addition and measured after 15 mins by DTNB reagent based Ellman's method; conditions: read-out: IC50
Sequence of Acetylcholinesterase (O42275 whole entry): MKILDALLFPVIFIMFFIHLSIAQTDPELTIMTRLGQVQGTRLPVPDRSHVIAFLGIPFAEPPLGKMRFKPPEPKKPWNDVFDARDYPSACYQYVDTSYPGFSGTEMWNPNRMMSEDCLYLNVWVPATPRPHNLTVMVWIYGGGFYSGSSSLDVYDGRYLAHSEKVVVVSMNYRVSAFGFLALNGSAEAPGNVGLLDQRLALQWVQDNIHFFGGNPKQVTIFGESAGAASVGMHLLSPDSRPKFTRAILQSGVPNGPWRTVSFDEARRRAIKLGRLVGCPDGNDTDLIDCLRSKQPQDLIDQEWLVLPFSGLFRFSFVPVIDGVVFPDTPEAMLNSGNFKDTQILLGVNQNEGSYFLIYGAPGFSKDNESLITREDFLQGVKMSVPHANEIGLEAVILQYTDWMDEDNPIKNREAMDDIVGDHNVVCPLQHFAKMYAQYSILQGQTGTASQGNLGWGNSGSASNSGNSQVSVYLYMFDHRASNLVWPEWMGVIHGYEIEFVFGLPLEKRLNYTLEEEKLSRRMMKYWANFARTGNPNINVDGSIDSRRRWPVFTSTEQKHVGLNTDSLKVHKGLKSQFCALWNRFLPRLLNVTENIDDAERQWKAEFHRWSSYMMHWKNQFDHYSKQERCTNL

[14] = Acute toxicity in male Swiss albino mouse assessed as signs of pain at 1200 mg/kg BW, po administered as single dose via gavage measured after 20 mins by up-and-down method; assay type: organism-based; conditions: in vivo
[15] = Acute toxicity in male Swiss albino mouse assessed as mortality rate at 1500 mg/kg BW, po administered as single dose via gavage measured after 48 hrs by up-and-down method relative to control; assay type: organism-based; conditions: in vivo
[16] = Acute toxicity in male Swiss albino mouse assessed as mortality treated po single dose via gavage measured after 48 hrs by up-and-down method; assay type: organism-based; conditions: in vivo
[17] = Acute toxicity in male Swiss albino mouse assessed as lethargy at 1200 mg/kg BW, po administered as single dose via gavage measured after 20 mins by up-and-down method; assay type: organism-based; conditions: in vivo
[18] = Neurotoxicity against human SH-SY5Y cells assessed as reduction in cell viability upto 50 uM incubated for 24 hrs by MTT assay; assay type: toxicity, cell-based
[19] = Acute toxicity in male Swiss albino mouse assessed as signs of distress at 1500 mg/kg BW, po administered as single dose via gavage measured after 48 hrs by up-and-down method; assay type: organism-based; conditions: in vivo
[20] = Acute toxicity in male Swiss albino mouse assessed as lethargy at 450 mg/kg BW, po administered as single dose via gavage measured after 1 hrs by up-and-down method; assay type: organism-based; conditions: in vivo
[21] = Acute toxicity in male Swiss albino mouse assessed as survival time at 250 mg/kg BW, po administered as single dose via gavage by up-and-down method; assay type: organism-based; conditions: in vivo
[22] = Acute toxicity in male Swiss albino mouse assessed as ataxia at 1200 mg/kg BW, po administered as single dose via gavage measured after 20 mins by up-and-down method; assay type: organism-based; conditions: in vivo
[23] = tested on: Mus musculus; assay: Antioxidant activity against scopolamine-induced Albino mouse assessed as decrease in MDA level in brain at 5 mg/kg measured after 24 hrs; assay type: functional
[24] = tested on: Mus musculus; assay: Antioxidant activity against scopolamine-induced Albino mouse assessed as increase in catalase activity in brain at 5 mg/kg measured after 24 hrs; assay type: functional, organism-based
[25] = Acute toxicity in male Swiss albino mouse assessed as mortality rate at 900 mg/kg BW, po administered as single dose via gavage measured after 48 hrs by up-and-down method relative to control; assay type: organism-based; conditions: in vivo
[26] = Acute toxicity in male Swiss albino mouse assessed as seizures at 1200 mg/kg BW, po administered as single dose via gavage measured after 20 mins by up-and-down method; assay type: organism-based; conditions: in vivo
[27] = biological target: Cholinesterase (Equus caballus, UniProt P81908); assay: Inhibition of equine serum BuChE using butyrylthiocholine iodide as substrate pre-incubated for 10 mins followed by substrate addition and measured after 15 mins by DTNB reagent based Ellman's method
Sequence of Cholinesterase (P81908 whole entry): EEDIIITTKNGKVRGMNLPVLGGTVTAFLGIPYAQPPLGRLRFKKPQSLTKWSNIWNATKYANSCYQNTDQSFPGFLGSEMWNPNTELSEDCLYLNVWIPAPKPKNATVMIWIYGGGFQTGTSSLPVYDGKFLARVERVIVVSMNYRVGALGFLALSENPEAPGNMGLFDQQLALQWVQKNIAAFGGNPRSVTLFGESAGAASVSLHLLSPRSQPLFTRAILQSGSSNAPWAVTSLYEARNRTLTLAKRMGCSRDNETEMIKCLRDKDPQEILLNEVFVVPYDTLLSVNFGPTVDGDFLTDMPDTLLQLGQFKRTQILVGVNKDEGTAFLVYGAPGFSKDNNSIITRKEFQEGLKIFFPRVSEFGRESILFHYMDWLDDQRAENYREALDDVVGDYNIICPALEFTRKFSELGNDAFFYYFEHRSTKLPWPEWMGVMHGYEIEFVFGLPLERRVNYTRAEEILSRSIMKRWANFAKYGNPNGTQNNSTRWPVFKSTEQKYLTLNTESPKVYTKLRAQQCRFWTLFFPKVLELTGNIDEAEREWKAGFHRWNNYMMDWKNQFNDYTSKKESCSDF

[28] = Acute toxicity in male Swiss albino mouse assessed as survival time at 900 mg/kg BW, po administered as single dose via gavage by up-and-down method; assay type: organism-based; conditions: in vivo
[29] = Neurotoxicity against human SH-SY5Y cells assessed as reduction in cell viability at 100 uM incubated for 24 hrs by MTT assay; assay type: toxicity, cell-based
[30] = Acute toxicity in male Swiss albino mouse assessed as mortality rate at 1200 mg/kg BW, po administered as single dose via gavage measured after 48 hrs by up-and-down method relative to control; assay type: organism-based; conditions: in vivo

**Q.** Which IC50 [1] does the source give for `COc1cc(/C=C/C(=O)Nc2ccc3sc(NCN4C(=O)CSC4=O)nc3c2)ccc1O` here?
**A.** 24 nM

**Q.** What about the Time [2] of the same compound?
**A.** > 48 h

**Q.** And the Papp at 20 h [3]?
**A.** 5.7 ×10⁻⁶ cm/s

**Q.** What about the Activity [4] of the same compound?
**A.** Toxic

**Q.** And the IC50 [5]?
**A.** 2420 nM

**Q.** What about the Time [6] of the same compound?
**A.** 15 min

**Q.** What about the Time [7] of the same compound?
**A.** 40 min

**Q.** What about the logP [8] of the same compound?
**A.** 3.34

**Q.** What about the Activity [9] of the same compound?
**A.** 230 U/ml

**Q.** What about the Time [10] of the same compound?
**A.** 18 h

**Q.** And the Activity [11]?
**A.** Toxic

**Q.** What about the mortality at 48 h [12] of the same compound?
**A.** 0%

**Q.** And the IC50 [13]?
**A.** 72 nM

**Q.** What about the Activity [14] of the same compound?
**A.** Toxic

**Q.** What about the mortality at 48 h [15] of the same compound?
**A.** 100%

**Q.** What about the LD100 ([16]; po, 48 h) of the same compound?
**A.** 1500 mg/kg

**Q.** And the LD50 at 48 h ([16]; male, Swiss albino)?
**A.** 800 mg/kg

**Q.** What about the Activity [17] of the same compound?
**A.** Toxic

**Q.** What about the Activity [18] of the same compound?
**A.** Non-toxic

**Q.** What about the Activity [19] of the same compound?
**A.** Toxic

**Q.** And the Activity [20]?
**A.** Toxic

**Q.** And the Time [21]?
**A.** > 48 h

**Q.** What about the Activity [22] of the same compound?
**A.** Toxic

**Q.** And the Activity [23]?
**A.** 1.95 nmol/mL

**Q.** And the Activity [24]?
**A.** Active

**Q.** What about the mortality at 48 h [25] of the same compound?
**A.** 66.7%

**Q.** What about the Activity [26] of the same compound?
**A.** Toxic

**Q.** And the IC50 [27]?
**A.** 9.81 µM

**Q.** And the Time [28]?
**A.** 2 h

**Q.** What about the Activity [29] of the same compound?
**A.** Toxic

**Q.** And the mortality at 48 h [30]?
**A.** 80%
